The record followed here is patent US20230113037A1 (Bayer Aktiengesellschaft, priority 2019, published 2023).

Experiment [1] concerns the target T1, AHR (Homo sapiens, UniProt P35869).
T1 construct: U87 MG glioblastoma cells (ATCC #HTB-14) endogenously expressing AHR; endogenous in cells; host or cells: U87 MG glioblastoma cells (ATCC #HTB-14)
T1 sequence (P35869 11-848): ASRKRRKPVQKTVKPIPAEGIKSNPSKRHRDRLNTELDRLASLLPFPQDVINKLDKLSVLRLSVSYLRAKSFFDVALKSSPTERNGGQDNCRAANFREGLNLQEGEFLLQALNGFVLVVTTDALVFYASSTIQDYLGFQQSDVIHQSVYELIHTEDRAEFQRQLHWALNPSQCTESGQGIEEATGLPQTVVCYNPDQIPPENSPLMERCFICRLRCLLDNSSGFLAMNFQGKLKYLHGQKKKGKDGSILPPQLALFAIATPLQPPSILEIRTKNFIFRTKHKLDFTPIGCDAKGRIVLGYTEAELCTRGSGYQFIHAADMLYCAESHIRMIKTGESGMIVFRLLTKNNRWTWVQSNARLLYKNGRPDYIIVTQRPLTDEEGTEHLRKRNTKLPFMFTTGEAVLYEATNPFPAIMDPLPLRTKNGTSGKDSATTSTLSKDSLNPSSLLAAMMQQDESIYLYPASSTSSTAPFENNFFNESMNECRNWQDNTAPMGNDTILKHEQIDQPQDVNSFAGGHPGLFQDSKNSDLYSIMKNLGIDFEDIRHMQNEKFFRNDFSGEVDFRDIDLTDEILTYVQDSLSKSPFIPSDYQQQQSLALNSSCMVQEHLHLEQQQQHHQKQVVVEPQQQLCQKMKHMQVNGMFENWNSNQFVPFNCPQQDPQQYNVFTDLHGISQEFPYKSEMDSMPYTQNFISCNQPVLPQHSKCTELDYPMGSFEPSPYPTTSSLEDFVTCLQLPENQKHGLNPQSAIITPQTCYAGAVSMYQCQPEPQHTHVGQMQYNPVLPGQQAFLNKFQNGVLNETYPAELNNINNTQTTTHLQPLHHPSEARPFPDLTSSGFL
As to the kind of experiment: In vitro assay 1: antagonism in human cell line (AHR transactivation, firefly luciferase reporter, kynurenic acid prestimulated). The settings on record: AHR Antagonism Human IC50 [M], firefly luciferase reporter. Type of experiment: cell-based. The method in brief:
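U87 MG glioblastoma cells with endogenous AHR, stably carrying a DRE-driven firefly luciferase reporter and constitutive Renilla reporter, prestimulated with kynurenic acid before compound addition. Firefly and Renilla read by dual luciferase; Renilla flags toxicity; normalized to controls (150 μM kynurenic acid + 5 μM staurosporine as full inhibition); repeat values averaged or median.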
(In general: Reporter assays use an easily measured gene product as a stand-in for the process of interest.)

In experiment [2] the target is T2, AHR (Mus musculus, UniProt P30561).
T2 sequence (P30561 1-848 P471L/N533S/M589L): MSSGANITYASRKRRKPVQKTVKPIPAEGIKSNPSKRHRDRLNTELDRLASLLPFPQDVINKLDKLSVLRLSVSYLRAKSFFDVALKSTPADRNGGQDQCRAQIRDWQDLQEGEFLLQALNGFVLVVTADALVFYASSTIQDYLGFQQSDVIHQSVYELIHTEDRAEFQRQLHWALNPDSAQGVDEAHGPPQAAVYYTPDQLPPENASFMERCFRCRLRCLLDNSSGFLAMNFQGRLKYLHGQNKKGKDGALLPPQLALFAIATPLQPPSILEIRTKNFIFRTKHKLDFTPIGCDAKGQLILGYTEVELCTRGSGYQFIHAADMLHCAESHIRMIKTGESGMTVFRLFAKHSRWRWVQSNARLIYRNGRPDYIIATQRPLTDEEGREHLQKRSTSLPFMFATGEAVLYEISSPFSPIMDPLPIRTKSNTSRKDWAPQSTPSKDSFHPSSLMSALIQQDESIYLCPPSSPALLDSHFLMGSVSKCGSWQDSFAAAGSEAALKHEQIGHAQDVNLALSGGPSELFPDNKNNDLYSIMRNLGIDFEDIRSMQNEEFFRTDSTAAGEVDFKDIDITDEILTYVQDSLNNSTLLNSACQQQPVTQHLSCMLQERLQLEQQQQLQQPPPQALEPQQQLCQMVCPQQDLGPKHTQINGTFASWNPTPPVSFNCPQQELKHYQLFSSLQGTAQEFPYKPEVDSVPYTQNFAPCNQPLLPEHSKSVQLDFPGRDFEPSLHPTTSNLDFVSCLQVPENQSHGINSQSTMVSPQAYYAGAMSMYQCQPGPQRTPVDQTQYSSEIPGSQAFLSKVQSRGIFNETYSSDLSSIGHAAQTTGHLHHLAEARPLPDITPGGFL
As to the kind of experiment: In vitro assay 3: antagonism in mouse cell line (AHR transactivation, firefly luciferase reporter, kynurenic acid prestimulated). Type of experiment: cell-based. The method in brief: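 Cells were first stimulated with kynurenic acid, then exposed to test compound, after which firefly luciferase from a DRE-containing AHR reporter was read out. Signal was scaled between positive and negative controls. Cells not given kynurenic acid provided the inhibition reference.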

Where [3] appears, read: Hepa 1c1c7 cells, 200 μM kynurenic acid, 20 hours, firefly luciferase reporter, read-out: AHR Antagonism Mouse IC50.
[4] abbreviates: read-out: AHR Antagonism Mouse IC50, Hepa 1c1c7 cells, 200 μM kynurenic acid, 20 hours, firefly luciferase reporter.

Like-named read-outs stand apart in the source and are kept apart here.

For `CC(C)S(=O)(=O)c1cccc2c1nc(N[C@@H]1CNCCNC1=O)n1nc(-c3cnn(C)c3)nc21` [Example 943, (6R)-6-{[2-(1-methyl-1H-pyrazol-4-yl)-7-(propane-2-sulfonyl)[1,2,4]triazolo[1,5-c]quinazolin-5-yl]amino}-1,4-diazepan-5-one], the IC50 was found to be 9.47e-07 M against AHR [1] and 2790 nM at AHR [2] (setting [3]).
For `CC(C)n1cc(-c2nc3c4cccc(S(C)(=O)=O)c4nc(N[C@@H]4CNCCNC4=O)n3n2)cn1` [Example 944, (6R)-6-({7-(methanesulfonyl)-2-[1-(propan-2-yl)-1H-pyrazol-4-yl][1,2,4]triazolo[1,5-c]quinazolin-5-yl}amino)-1,4-diazepan-5-one], the IC50 on AHR [1] stood at 1.67e-06 M; at AHR [2] (setting [3]), 4620 nM.
For `CCn1cc(-c2nc3c4cccc(S(C)(=O)=O)c4nc(N[C@@H]4CNCCNC4=O)n3n2)c(C)n1` [Example 945, (6R)-6-{[2-(1-ethyl-3-methyl-1H-pyrazol-4-yl)-7-(methanesulfonyl)[1,2,4]triazolo[1,5-c]quinazolin-5-yl]amino}-1,4-diazepan-5-one], in that order: 4.79e-07 M and 2080 nM.
Regarding `Cn1nccc1-c1nc2c3cccc(C(F)(F)F)c3nc(N[C@@H]3CNCCNC3=O)n2n1` [Example 946, (6R)-6-{[2-(1-methyl-1H-pyrazol-5-yl)-7-(trifluoromethyl)[1,2,4]triazolo[1,5-c]quinazolin-5-yl]amino}-1,4-diazepan-5-one], the IC50 is 8.75e-09 M on AHR [1] and 2.16 nM at AHR [2] (setting [3]).
For the molecule `O=C1NCCNC[C@H]1Nc1nc2c(C(F)(F)F)cccc2c2nc(-c3ccc(Cl)cc3)nn12` [Example 947, (6R)-6-{[2-(4-chlorophenyl)-7-(trifluoromethyl)[1,2,4]triazolo[1,5-c]quinazolin-5-yl]amino}-1,4-diazepan-5-one], the 50% inhibitory concentration (IC50) was determined as 5.91e-10 M on AHR [1] and 0.324 nM at AHR [2] (setting [3]).
Consider `Cc1nn(C)cc1-c1nc2c3cccc(C(F)(F)F)c3nc(N[C@H]3CNCCNC3=O)n2n1` [Example 948], for which the values for the IC50 against AHR [1] and at AHR [2] (setting [3]) were 2.08e-08 M and 49.6 nM, respectively.
Regarding `CCn1cc(-c2nc3c4cccc(C(F)(F)F)c4nc(N[C@H]4CNCCNC4=O)n3n2)c(C)n1` [Example 949, (6S)-6-{[2-(1-ethyl-3-methyl-1H-pyrazol-4-yl)-7-(trifluoromethyl)[1,2,4]triazolo[1,5-c]quinazolin-5-yl]amino}-1,4-diazepan-5-one], the IC50 came out at 4.4e-09 M against AHR [1] and 14.7 nM at AHR [2] (setting [3]).
With `Cc1nn(C)cc1-c1nc2c3cccc(Cl)c3nc(N[C@@H]3CNCCNC3=O)n2n1` [Example 951, (6R)-6-{[7-chloro-2-(1,3-dimethyl-1H-pyrazol-4-yl)[1,2,4]triazolo[1,5-c]quinazolin-5-yl]amino}-1,4-diazepan-5-one], the IC50 against AHR [1] turned out to be 3.22e-09 M; at AHR [2] (setting [3]) it was 5.44 nM.
With `O=C1NCCNC[C@H]1Nc1nc2c(Br)cccc2c2nc(-c3cnn(C4CC4)c3)nn12` [Example 952, (6R)-6-{[7-bromo-2-(1-cyclopropyl-1H-pyrazol-4-yl)[1,2,4]triazolo[1,5-c]quinazolin-5-yl]amino}-1,4-diazepan-5-one], the half-maximal inhibitory concentration (IC50) is 3.97e-09 M on AHR [1] and 6.74 nM at AHR [2] (setting [4]).
`O=C1NCCNC[C@@H]1Nc1nc2c(Br)cccc2c2nc(-c3cnn(C4CC4)c3)nn12` [Example 953, (6S)-6-{[7-bromo-2-(1-cyclopropyl-1H-pyrazol-4-yl)[1,2,4]triazolo[1,5-c]quinazolin-5-yl]amino}-1,4-diazepan-5-one]: the values for the IC50 against AHR [1] and at AHR [2] (setting [4]) were 2.14e-08 M and 14.9 nM, respectively.
As for `O=C1NCCNC[C@H]1Nc1nc2c(C3CC3)cccc2c2nc(-c3cnn(CC4CC4)c3)nn12` [Example 954, (6R)-6-({7-cyclopropyl-2-[1-(cyclopropylmethyl)-1H-pyrazol-4-yl][1,2,4]triazolo[1,5-c]quinazolin-5-yl}amino)-1,4-diazepan-5-one], the IC50 was 7.73e-08 M against AHR [1] and 341 nM at AHR [2] (setting [3]).
With `CC(C)n1cc(-c2nc3c4cccc(C5CC5)c4nc(N[C@@H]4CNCCNC4=O)n3n2)cn1` [Example 955, (6R)-6-({7-cyclopropyl-2-[1-(propan-2-yl)-1H-pyrazol-4-yl][1,2,4]triazolo[1,5-c]quinazolin-5-yl}amino)-1,4-diazepan-5-one], the half-inhibitory concentration (IC50) at AHR [1] worked out at 5.57e-08 M; on AHR [2] (setting [3]) it was 452 nM.
Turning to `CC(C)n1cc(-c2nc3c4cccc(Cl)c4nc(N[C@@H]4CNCCNC4=O)n3n2)cn1` [Example 956, (6R)-6-({7-chloro-2-[1-(propan-2-yl)-1H-pyrazol-4-yl][1,2,4]triazolo[1,5-c]quinazolin-5-yl}amino)-1,4-diazepan-5-one], the IC50 against AHR [1] amounted to 5.77e-09 M; at AHR [2] (setting [3]), 8.5 nM.
In the case of `CCn1cc(-c2nc3c4cccc(Cl)c4nc(N[C@@H]4CNCCNC4=O)n3n2)cn1` [Example 957, (6R)-6-{[7-chloro-2-(1-ethyl-1H-pyrazol-4-yl)[1,2,4]triazolo[1,5-c]quinazolin-5-yl]amino}-1,4-diazepan-5-one], the IC50 was 1.22e-08 M against AHR [1] and 16.8 nM at AHR [2] (setting [3]).
With `CCn1cc(-c2nc3c4cccc(Cl)c4nc(N[C@@H]4CNCCNC4=O)n3n2)c(C)n1` [Example 958, (6R)-6-{[7-chloro-2-(1-ethyl-3-methyl-1H-pyrazol-4-yl)[1,2,4]triazolo[1,5-c]quinazolin-5-yl]amino}-1,4-diazepan-5-one], the results for the half-inhibitory concentration (IC50) against AHR [1] and on AHR [2] (setting [3]) were 1.9e-09 M and 2.84 nM, respectively.
The matching figures for `COc1ccc(-c2nc3c4cccc(C5CC5)c4nc(N[C@H]4CNCCNC4=O)n3n2)cc1` [Example 959, (6S)-6-{[7-cyclopropyl-2-(4-methoxyphenyl)[1,2,4]triazolo[1,5-c]quinazolin-5-yl]amino}-1,4-diazepan-5-one]: 5.36e-08 M and 368 nM.
For the molecule `CC(C)n1cc(-c2nc3c4cccc(C(F)(F)F)c4nc(N[C@H]4CNCCNC4=O)n3n2)cn1` [Example 960, (6S)-6-({2-[1-(propan-2-yl)-1H-pyrazol-4-yl]-7-(trifluoromethyl)[1,2,4]triazolo[1,5-c]quinazolin-5-yl}amino)-1,4-diazepan-5-one], the figures for the concentration for half-maximal inhibition (IC50) against AHR [1] and on AHR [2] (setting [3]) were 4.02e-08 M and 93 nM, respectively.
Regarding `CCn1cc(-c2nc3c4cccc(F)c4nc(N[C@@H]4CNCCNC4=O)n3n2)cn1` [Example 961, (6R)-6-{[2-(1-ethyl-1H-pyrazol-4-yl)-7-fluoro-[1,2,4]triazolo[1,5-c]quinazolin-5-yl]amino}1-4,-diazepan-5-one], the concentration for half-maximal inhibition (IC50) against AHR [1] was found to be 7.95e-07 M; at AHR [2] (setting [3]), 272 nM.
The matching figures for `Cc1nn(C)cc1-c1nc2c3cccc(Br)c3nc(N[C@@H]3CNCCNC3=O)n2n1` [Example 962, (6R)-6-{[7-bromo-2-(1,3-dimethyl-1H-pyrazol-4-yl)[1,2,4]triazolo[1,5-c]quinazolin-5-yl]amino}-1,4-diazepan-5-one]: 4.37e-09 M and 10.9 nM.

What is called IC50 is the concentration that inhibits the measured activity by half.
